The subject of assay [1] is latent HIV-1. As to the kind of experiment: Reactivation of latent HIV-1 in absence or presence of γc-cytokines. The format is cell-based. As to conditions: for viral reactivation by cytokine alone: cytokine by itself, compared with absence of cytokines; for viral reactivation in the presence of IL-2, IL-4, and IL-15: as worded; for viral reactivation in the presence of IL-2, IL-7 and IL-5: as worded in FIG. 3 legend b37; for viral reactivation in combination with IL-4: combined with IL-4; for viral reactivation in combination with IL-9 and IL-21: combined with IL-9 or IL-21; for viral reactivation in the absence of γc-cytokines: no cytokines, p24Gag 72 hours. As for the experimental part: Latently infected cells were generated using healthy, uninfected DONOR 78 cells that were infected with DHIV virus. Reactivation was monitored by analysis of p24Gag by Flow Cytometry 72 hours after stimulation.

For assay [2], the system named is latent HIV-1. Kind of assay: Blocking of viral reactivation by chemical inhibitors of known signaling pathways. In kind it is cell-based. To be noted: reactivation stimulus HOAt. From the text:
The ability of chemical inhibitors of known signaling pathways to block viral reactivation mediated by HOAt was examined (FIG. 4A). […] Activation of JAK kinases lead to the activation of the transcription factors STATs. Specific inhibitors of STAT3 and STAT5 were thus also studied.

The subject of assay [3] is latent HIV-1. As to the kind of experiment: Reactivation of latent HIV-1 in latently infected cultured TCM (GFP / p24Gag by flow cytometry). The format is cell-based. As to conditions: for activation of latent HIV-1 (viral reactivation): 72 hours after stimulation, GFP or p24Gag by flow cytometry; for ability to induce viral reactivation compared to the original hit HOBt: panel of 7 derivatives of HOBt (FIG. 2D). From the text: A novel primary cell model for the study of HIV-1 latency was adapted so as to be suitable for high-throughput screening (HTS) of new compounds that may reactivate HIV-1 from its latency state (Bosque and Planelles, 2009; Bosque and Planelles, 2010; and patent application: Methods and compositions relating to viral latency, Planelles V, Basque A, U.S. Patent Application 2010/0291067 A1, November 2010).
To facilitate HTS, the nef gene was replaced with that encoding the green fluorescent protein (GFP). It was confirmed that deletion of nef has no effect in latency/reactivation (Bosque and Planelles, 2009) and that using GFP provides a faster, more economical, and equally sensitive, as compared to intracellular p24 detection, readout.
The reactivation experiments were modified to be performed in 96-well plates, utilizing 100,000 cells per well. After reactivation, flow cytometric analysis was performed with Becton Dickinson FACSCanto II with a High Throughput Sampler (HTS) for microtiter plates that is available through the Flow Cytometry Core Facility at the University of Utah. It takes about 30 minutes to analyze a plate, when acquiring 10,000 cells per well. Analysis for each well includes (a) green fluorescence as a direct indicator of viral reactivation; and (b) forward and side scatter as general measures of cell morphology, which is a gross indication of viability.
Latently infected cells were generated using healthy, uninfected DONOR 78 cells that were infected with DHIV virus. Reactivation was monitored by analysis of GFP by Flow Cytometry 72 hours after stimulation. Beads coated with anti-CD3/anti CD28 (CD3/CD28) were used as a positive reactivation stimulus. Reactivation was done in a 96-well plate round bottom. […] This compound is an intermediate en route to synthesis of a cyclic peptide isolated from a tunicate.
HPLC was used to generate 20 fractions based on elution time using a gradient from 10-100% acetonitrile in 0.1% formic acid using a Phenomenex Kinetic C18 50×2.10 mm column ([…], 100 A). The ability of these fractions to activate HIV-1 was tested and compared in parallel with the original hit. […] Further fractionation of C7 was performed and each fraction tested at the concentration indicated in the graph (FIG. 1D). […] Finally, HOBt was tested at different concentrations and analyzed on either Day 3, Day 5, or Day 7.
In general terms: In flow cytometry, cells or beads pass a laser one at a time.

The subject of assay [4] is pSTAT5. Kind of assay: pSTAT5 levels 48 h after IL-2 plus derivatives, flow cytometer. To be noted: with IL-2, 48 h. In kind it is cell-based. As to the method: Cells were treated with IL-2 and several derivatives of HOAt. Levels of pSTAT5 were measured 48 h later by flow cytometer.
In another assay the test system is cultured TCM. As to the kind of experiment: T cell proliferation of cultured TCM. In kind it is cell-based, human. To be noted: dose dependent incubation. As to the method:
(§1) In order to determine whether HOAt is inducing T cell proliferation, culter TCM were incubated with HOAt in a dose dependent manner. […] It has been shown previously that both cultured TCM and ex vivo TCM express low levels of CD25 (Bosque et al. 2011). This level is increased by 37 times after TCR engagement with αCD3/αCD28, measured as mean intensity of fluorescence (values between parenthesis, FIG. 6D).

In the next assay the test system is memory T cells. As to the kind of experiment: T cell differentiation (CCR7 and CD27 levels). As to conditions: three days post activation. The format is cell-based, human. An excerpt:
(§2) Memory cells were generated from 3 different donors and treated with either HOBt or anti-CD3/CD28 to analyze the effect of HOBt on T cell activation (FIG. 6A). Analysis of T cell activation was done by analyzing the upregulation of the activation markers CD25 and CD69 three days post activation. […] Analysis of T cell differentiation was done by analyzing the levels of CCR7 and CD27 three days post activation (FIG. 6B).

In assay [5] the test system is memory T cells / cultured TCM. Kind of assay: T cell activation (activation markers CD25 and CD69). The format is cell-based, human. As to conditions: for increase of CD25 levels (mean intensity of fluorescence): maximum concentration used (compound), TCR engagement (αCD3/αCD28).
From the text: as §2, §1
CD69 upregulation is concomitant with T cell activation.

Another assay relates to SOCS3. Kind of assay: Expression levels of SOCS3, a target gene for STAT5. The format is cell-based, human. As to conditions: IL-2 and HOAt, 24 h post-treatment. As for the experimental part: STAT5 is a transcriptional activator of multiple genes. To address whether HOAt will increase the transcription of any STAT5 target genes, the expression levels of SOCS3, a target gene for STAT5, were analyzed.

For assay [6], the system named is pSTAT5. As to the kind of experiment: pSTAT5 immunoprecipitation and western blot. In kind it is cell-based. As to conditions: 30 min pretreatment, then IL-2 for 30 min. As to the method: STAT5 was immunoprecipitated with antibodies specific for the phosphorylated protein and western blot was performed against pSTAT5.
(Immunoblotting shows a protein as a band on a membrane.)

Assay [7] deals with STAT5. Kind of assay: Nuclear localization of STAT5. The format is cell-based, human. As to conditions: IL-2 alone or in the presence of HOAt. From the text: Nuclear translocation of STAT5 is required for its transcriptional activity. […] Histone H3 and alpha Tubulin were used as controls for purity of the fractionation.
The subject of assay [8] is latent HIV-1. As to the kind of experiment: Viral reactivation mediated by other stimuli (PMA, ionomycin, SAHA). The format is cell-based. As to conditions: HOAt added to each of three stimuli.
Assay [9] deals with STAT5. As to the kind of experiment: STAT5 phosphorylation by flow cytometry in cultured TCM. In kind it is cell-based, human.
Description: The levels of STAT5 phosphorylation were analyzed by flow cytometry after incubating cultured TCM with HOAt, IL-2, or a combination of both, during a 24 h period (FIG. 4B).
The test system of assay [10] is latent HIV-1. As to the kind of experiment: Reactivation of latent HIV-1 in cells isolated from aviremic HIV-1 patients. The format is cell-based. To be noted: cells of two patients suppressed with antiretroviral; versus DMSO control. From the text:
Briefly, cells for two patients suppressed with antiretroviral were isolated and treated with either DMSO (Control), HOAt or the mitogen PHA.

Entries after “also recorded” stand apart in the source; their conditions may differ.

The values that follow come from US9730928B2, “Trizol-1-OL analogs anti-retroviral latency drugs” (priority 2013, dated 2017).

IL-21: γc-cytokine: the “viral reactivation by cytokine alone” value in the assay on latent HIV-1 [1] was “did not have an effect in viral reactivation; also recorded: no effect”.
For the molecule `O=C(N/N=C/c1coc2ccccc2c1=O)c1cccnc1` [STAT5 inhibitor], the “effect on viral reactivation induced by HOAt” value in the assay with latent HIV-1 [2] is reported as “completely abrogates viral reactivation; also recorded: completely prevent activation of latent HIV-1 by HOAt”.
Regarding `On1nnc2ccccc21` [HOBt, 1-hydroxybenzotriazole], the “activation of latent HIV-1 (viral reactivation)” value in the assay on latent HIV-1 [3] is recorded as “activate latent HIV-1 in a dose-dependent manner; also recorded: able to reactivate HIV-1 latency; also recorded: reactivate HIV-1 latency in a dose dependent manner; also recorded: activates HIV-1 latent cells”. For the same molecule, in the assay on latent HIV-1 [3] (analyzed on Day 3, Day 5, or Day 7), the “kinetics of HIV-1 latency reactivation compared with anti-CD3/CD28” value is given as “slower kinetics”. In the assay with pSTAT5 [4], the “maintenance of pSTAT5 levels” value is “maintain pSTAT5 levels in a dose dependent manner”. Moreover, the T cell proliferation result in the assay on cultured TCM was “only induces some degree of T cell proliferation at the higher concentration tested”. In the assay with memory T cells, the “T cell differentiation (loss of CCR7 and CD27 expression)” value is listed as “does not induce T cell differentiation”. Also, the “increase of CD25 levels (mean intensity of fluorescence)” value in [5] is given as 1.4 times. Further, in assay [5] (three days post activation, 3 donors), the “general T cell activation (upregulation of CD25 and CD69)” value is “does not induce general T cell activation”. In addition, in the assay with latent HIV-1 [1], the “viral reactivation in the presence of IL-2, IL-4, and IL-15” value is given as “dramatically increase viral reactivation”; the “viral reactivation in the presence of IL-2, IL-7 and IL-5” value was “increase viral reactivation”; the “viral reactivation in combination with IL-4” value was “induced significant viral reactivation; also recorded: did induce significant viral reactivation”; the “viral reactivation in combination with IL-9 and IL-21” value is given as “did not have an effect in viral reactivation”. Besides, the “viral reactivation in the absence of γc-cytokines” value with latent HIV-1 [1] is recorded as “significantly reactivate HIV-1 latency”.
`On1nnc2cccnc21` [HOAt, 1-hydroxy-7-azabenzotriazole]: in the assay with latent HIV-1 [3], the “activation of latent HIV-1 (viral reactivation)” value is listed as “able to reactivate HIV-1 latency; also recorded: activates HIV-1 latent cells; also recorded: activate latent HIV-1; also recorded: reactivate HIV-1 latency in a dose dependent manner” and the “ability to induce viral reactivation compared to the original hit HOBt” value is given as “more potent analog than the original hit; also recorded: increased activity compared to HOBt”. The “levels (transcription) of SOCS3” value with SOCS3 is recorded as “increase the levels of SOCS3; also recorded: increases the transcription of SOC3S”. In addition, the “maintenance of pSTAT5 levels” value in the assay with pSTAT5 [4] is listed as “maintain pSTAT5 levels in a dose dependent manner”. Also, in the assay on cultured TCM, the T cell proliferation entry is given as “only induces some degree of cell proliferation at the higher concentration tested”. The “levels of pSTAT5 in the inputs” value in the assay with pSTAT5 [6] is “increases the levels of pSTAT5”. In addition, the “pSTAT5 and STAT5 levels in the nucleus” value in the assay with STAT5 [7] is given as “increased in the nucleus; also recorded: increases the nuclear localization of STAT5”. Further, the “viral reactivation mediated by PMA, ionomycin and SAHA” value in the assay on latent HIV-1 [8] was “able to increase viral reactivation mediated by these three stimuli; also recorded: increases viral reactivation”. For the same molecule, the “STAT5 phosphorylation, agent alone over untreated cells” value in the assay on STAT5 [9] (HOAt alone) was “able to induce an increase in STAT5 phosphorylation over untreated cells”. Moreover, in the assay on STAT5 [9] (IL-2 and HOAt), the “STAT5 phosphorylation, combination with IL-2” value is listed as “drastic increase in STAT5 phosphorylation”. Further, the “STAT5 phosphorylation after 24 hrs, combination with IL-2” value with STAT5 [9] (IL-2 and HOAt, 24 hrs) is “do not significantly decrease”. The “levels of T cell activation (CD69) compared with αCD3/αCD28” value in assay [5] (CD69 upregulation) is “slightly increases the levels of T cell activation”. The “increase of CD25 levels (mean intensity of fluorescence)” value in assay [5] was 1.4 times. In addition, in the assay on latent HIV-1 [1], the “viral reactivation in the presence of IL-2, IL-4, and IL-15” value was “dramatically increase viral reactivation”; the “viral reactivation in the presence of IL-2, IL-7 and IL-5” value was “increase viral reactivation”; the “viral reactivation in combination with IL-4” value was “induced significant viral reactivation; also recorded: did induce significant viral reactivation”; the “viral reactivation in combination with IL-9 and IL-21” value is “did not have an effect in viral reactivation”. In addition, the “viral reactivation in the absence of γc-cytokines” value in the assay with latent HIV-1 [1] is on record as “significantly reactivate HIV-1 latency”. Also, the “regrowth of latent viruses in patient cells in vitro” value with latent HIV-1 [10] is “can induce regrowth of latent viruses in both patients”.
Regarding IL-9: γc-cytokine, the “viral reactivation by cytokine alone” value in the assay with latent HIV-1 [1] was “did not have an effect in viral reactivation; also recorded: no effect”.
As to `O=c1c2ccccc2nnn1O` [HO-DhBt, 3-hydroxybenzo[d][1,2,3]triazin-4-(3H)-one], in the assay with latent HIV-1 [3], the “ability to induce viral reactivation compared to the original hit HOBt” value was “able to induce viral reactivation in a dose dependent manner and with increased efficiency; also recorded: increased ability to induce viral reactivation in a dose dependent manner”. Moreover, in the assay on pSTAT5 [4], the “maintenance of pSTAT5 levels” value is “maintain pSTAT5 levels in a dose dependent manner”.
For `Cc1ccc2nc(NCCN)c3ncc(C)n3c2c1` [BMS345541], in the assay with latent HIV-1 [2], the “effect on viral reactivation induced by HOAt” value is “did not have a significant effect”.

B1: IL-7: γc-cytokine (protein, UniProt P13232 26-177, looked up)
Interleukin-7: DCDIEGKDGKQYESVLMVSIDQLLDSMKEIGSNCLNNEFNFFKRHICDANKEGMFLFRAARKLRQFLKMNSTGDFDLHLLKVSEGTTILLNCTGQVKGRKPAALGEAQPTKSLEENKSLKEQKKLNDLCFLKRLLQEIKTCWNKILMGTKEH
Consider B1, for which the “viral reactivation by cytokine alone” value with latent HIV-1 [1] is on record as “trend towards increasing viral reactivation”.

B2: IL-4: γc-cytokine (protein, UniProt P05112 25-153, looked up)
Interleukin-4: HKCDITLQEIIKTLNSLTEQKTLCTELTVTDIFAASKNTTEKETFCRAATVLRQFYSHHEKDTRCLGATAQQFHRHKQLIRFLKRLDRNLWGLAGLNSCPVKEANQSTLENFLERLKTIMREKYSKCSS
As to B2, the “viral reactivation by cytokine alone” value with latent HIV-1 [1] is listed as “not able to induce significant viral reactivation by itself; also recorded: did not induce viral reactivation by itself”.
